Laboratory results taken from PubChem BioAssay AID248 (DTP/NCI, 2004).
Inconclusive results and toxic doses are left out. Cut-off read from the data, not from the text of the source: active = T/C of 150% or more; inactive = T/C below 125%.

Tested on: L1210 leukemia ip in BDF1 mice, survival T/C
Test: NCI In Vivo Anticancer Drug Screen. Data for tumor model L1210 Leukemia (intraperitoneal) in B6D2F1 (BDF1) mice
Settings: higher = longer survival
Outline: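 Each compound was tested against a transplantable tumor grown in mice. The endpoint was survival, with treated animals benchmarked against vehicle controls as a simple ratio.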

[1] = endpoint: mean survival time, dose: 100.0 mg/kg/injection, schedule: Q01DX009 (ip), vehicle: Klucel (hydroxypropylcellulose) (HPC)
[2] = endpoint: mean survival time, dose: 200.0 mg/kg/injection, schedule: Q01DX009 (ip), vehicle: Klucel (hydroxypropylcellulose) (HPC)
[3] = endpoint: mean survival time, dose: 400.0 mg/kg/injection, schedule: Q01DX009 (ip), vehicle: Klucel (hydroxypropylcellulose) (HPC)
[4] = endpoint: mean survival time, dose: 100.0 mg/kg/injection, schedule: Q04DX002 (ip), vehicle: saline with Tween-80
[5] = endpoint: mean survival time, dose: 100.0 mg/kg/injection, schedule: Q04DX003 (ip), vehicle: other
[6] = endpoint: mean survival time, dose: 200.0 mg/kg/injection, schedule: Q04DX003 (ip), vehicle: other

Measured: T/C

CC1CC(C)(O)CC(C(O)CC2CC(=O)NC(=O)C2)C1=O (stereo unspecified)
active: endpoint: mean survival time, dose: 0.08 mg/kg/injection, schedule: Q01DX009 (ip), vehicle: saline 155 % of control | endpoint: mean survival time, dose: 0.15 mg/kg/injection, schedule: Q03HX024 (ip), vehicle: saline 155 % of control | endpoint: mean survival time, dose: 0.3 mg/kg/injection, schedule: Q01DX Z (ip), vehicle: methylcellulose (MC) 155 % of control | endpoint: mean survival time, dose: 0.3 mg/kg/injection, schedule: Q01DX Z (ip), vehicle: other 157 % of control | endpoint: mean survival time, dose: 0.3 mg/kg/injection, schedule: Q03HX016 (ip), vehicle: saline 161 % of control | endpoint: mean survival time, dose: 0.3 mg/kg/injection, schedule: Q03HX024 (ip), vehicle: saline 157 % of control | endpoint: mean survival time, dose: 2.4 mg/kg/injection, schedule: Q04DX003 (ip), vehicle: saline 154 % of control | endpoint: median survival time, dose: 2.0 mg/kg/injection, schedule: Q04DX003 (ip), vehicle: saline 154 % of control
inactive: endpoint: mean survival time, dose: 0.02 mg/kg/injection, schedule: Q03HX024 (ip), vehicle: saline 109 % of control | endpoint: mean survival time, dose: 0.03 mg/kg/injection, schedule: Q01DX Z (ip), vehicle: other 118 % of control | endpoint: mean survival time, dose: 0.04 mg/kg/injection, schedule: Q03HX016 (ip), vehicle: saline 111 % of control | endpoint: mean survival time, dose: 0.04 mg/kg/injection, schedule: Q03HX024 (ip), vehicle: saline 117 % of control | endpoint: mean survival time, dose: 0.08 mg/kg/injection, schedule: Q01DX005 (ip), vehicle: saline 120 % of control | endpoint: mean survival time, dose: 0.08 mg/kg/injection, schedule: Q01DX005 (iv), vehicle: saline 108 % of control | endpoint: mean survival time, dose: 0.08 mg/kg/injection, schedule: Q01DX Z (ip), vehicle: methylcellulose (MC) 123 % of control | endpoint: mean survival time, dose: 0.08 mg/kg/injection, schedule: Q01DX Z (ip), vehicle: other 119 % of control | endpoint: mean survival time, dose: 0.08 mg/kg/injection, schedule: Q03HX016 (ip), vehicle: saline 117 % of control | endpoint: mean survival time, dose: 0.15 mg/kg/injection, schedule: Q01DX005 (iv), vehicle: saline 115 % of control | endpoint: mean survival time, dose: 0.15 mg/kg/injection, schedule: Q01DX009 (ip), vehicle: saline 87 % of control | endpoint: mean survival time, dose: 0.15 mg/kg/injection, schedule: Q01DX009 (oral), vehicle: saline 109 % of control | endpoint: mean survival time, dose: 0.3 mg/kg/injection, schedule: Q01DX001 (iv), vehicle: saline 105 % of control | endpoint: mean survival time, dose: 0.3 mg/kg/injection, schedule: Q01DX009 (oral), vehicle: saline 117 % of control | endpoint: mean survival time, dose: 0.3 mg/kg/injection, schedule: Q11DX001 (ip), vehicle: saline 105 % of control | endpoint: mean survival time, dose: 0.3 mg/kg/injection, schedule: Q14DX008 (ip), vehicle: saline 112 % of control | endpoint: mean survival time, dose: 0.6 mg/kg/injection, schedule: Q01DX001 (iv), vehicle: saline 110 % of control | endpoint: mean survival time, dose: 0.6 mg/kg/injection, schedule: Q01DX005 (iv), vehicle: saline 112 % of control | endpoint: mean survival time, dose: 0.6 mg/kg/injection, schedule: Q01DX009 (oral), vehicle: saline 95 % of control | endpoint: mean survival time, dose: 0.6 mg/kg/injection, schedule: Q01DX Z (ip), vehicle: methylcellulose (MC) 92 % of control | endpoint: mean survival time, dose: 0.6 mg/kg/injection, schedule: Q08DX002 (ip), vehicle: saline 124 % of control | endpoint: mean survival time, dose: 0.6 mg/kg/injection, schedule: Q11DX001 (ip), vehicle: saline 114 % of control | endpoint: mean survival time, dose: 0.6 mg/kg/injection, schedule: Q14DX008 (ip), vehicle: saline 116 % of control | endpoint: mean survival time, dose: 0.9 mg/kg/injection, schedule: Q01DX Z (ip), vehicle: other 95 % of control | endpoint: mean survival time, dose: 1.2 mg/kg/injection, schedule: Q01DX001 (iv), vehicle: saline 121 % of control | endpoint: mean survival time, dose: 1.2 mg/kg/injection, schedule: Q01DX005 (ip), vehicle: saline 88 % of control | endpoint: mean survival time, dose: 1.2 mg/kg/injection, schedule: Q11DX001 (ip), vehicle: saline 113 % of control | endpoint: mean survival time, dose: 1.2 mg/kg/injection, schedule: Q11DX001 (oral), vehicle: saline 109 % of control | endpoint: mean survival time, dose: 1.2 mg/kg/injection, schedule: Q14DX008 (ip), vehicle: saline 113 % of control | endpoint: mean survival time, dose: 1.35 mg/kg/injection, schedule: Q01DX Z (ip), vehicle: other 87 % of control | endpoint: mean survival time, dose: 2.4 mg/kg/injection, schedule: Q01DX001 (iv), vehicle: saline 118 % of control | endpoint: mean survival time, dose: 2.4 mg/kg/injection, schedule: Q11DX001 (ip), vehicle: saline 112 % of control | endpoint: mean survival time, dose: 2.4 mg/kg/injection, schedule: Q11DX001 (oral), vehicle: saline 101 % of control | endpoint: mean survival time, dose: 2.4 mg/kg/injection, schedule: Q14DX008 (ip), vehicle: saline 108 % of control | endpoint: mean survival time, dose: 4.8 mg/kg/injection, schedule: Q11DX001 (ip), vehicle: saline 108 % of control | endpoint: mean survival time, dose: 10.0 micrograms/kg/injection, schedule: Q01DX Z (ip), vehicle: other 100 % of control | endpoint: mean survival time, dose: 20.0 micrograms/kg/injection, schedule: Q01DX Z (ip), vehicle: other 102 % of control | endpoint: mean survival time, dose: 40.0 micrograms/kg/injection, schedule: Q01DX Z (ip), vehicle: other 110 % of control | endpoint: mean survival time, dose: 80.0 micrograms/kg/injection, schedule: Q01DX Z (ip), vehicle: other 115 % of control

C=C(C)CC#N
inactive: endpoint: mean survival time, dose: 100.0 mg/kg/injection, schedule: Q04DX003 (ip), vehicle: saline 104 % of control | endpoint: mean survival time, dose: 200.0 mg/kg/injection, schedule: Q04DX003 (ip), vehicle: saline 109 % of control

O=[N+]([O-])c1cc(Cl)c(Cl)c([N+](=O)[O-])c1O
inactive: endpoint: mean survival time, dose: 25.0 mg/kg/injection, schedule: Q01DX009 (ip), vehicle: acetone 92 % of control | endpoint: mean survival time, dose: 50.0 mg/kg/injection, schedule: Q01DX009 (ip), vehicle: acetone 97 % of control | endpoint: mean survival time, dose: 50.0 mg/kg/injection, schedule: Q04DX003 (ip), vehicle: acetone 95 % of control | endpoint: mean survival time, dose: 100.0 mg/kg/injection, schedule: Q01DX001 (ip), vehicle: saline 95 % of control | endpoint: mean survival time, dose: 100.0 mg/kg/injection, schedule: Q01DX009 (ip), vehicle: acetone 95 % of control | endpoint: mean survival time, dose: 100.0 mg/kg/injection, schedule: Q04DX003 (ip), vehicle: acetone 89 % of control | endpoint: mean survival time, dose: 150.0 mg/kg/injection, schedule: Q01DX009 (ip), vehicle: acetone 100 % of control | endpoint: mean survival time, dose: 200.0 mg/kg/injection, schedule: Q01DX001 (ip), vehicle: saline 93 % of control

NC(=O)NC(O)C(Cl)(Cl)Cl (stereo unspecified)
inactive: [1] 100 % of control | [2] 100 % of control | [3] 93 % of control

CCCCC1CCC2=C(CC(O)(CCCC)CC3=C1C(=O)OC3=O)C(=O)OC2=O (stereo unspecified)
inactive: [4] 106 % of control | endpoint: mean survival time, dose: 200.0 mg/kg/injection, schedule: Q04DX002 (ip), vehicle: saline with Tween-80 95 % of control

CCCCCCCCC(=O)N1CC(C)OC(C)C1 (stereo unspecified)
inactive: [1] 120 % of control | [5] 118 % of control | [2] 87 % of control | [6] 109 % of control | [3] 94 % of control | endpoint: mean survival time, dose: 400.0 mg/kg/injection, schedule: Q04DX003 (ip), vehicle: other 104 % of control

ClC1=C(Cl)C2(Cl)C3C4CC(CC4Cl)C3C1(Cl)C2(Cl)Cl (stereo unspecified)
inactive: endpoint: mean survival time, dose: 75.0 mg/kg/injection, schedule: Q01DX001 (ip), vehicle: steriod suspending solution 93 % of control | endpoint: mean survival time, dose: 150.0 mg/kg/injection, schedule: Q01DX001 (ip), vehicle: steriod suspending solution 90 % of control | endpoint: mean survival time, dose: 300.0 mg/kg/injection, schedule: Q01DX001 (ip), vehicle: steriod suspending solution 98 % of control

CNCCNCC(Cc1ccccc1)c1ccccc1 (stereo unspecified)
inactive: endpoint: mean survival time, dose: 25.0 mg/kg/injection, schedule: Q04DX002 (ip), vehicle: saline 107 % of control | endpoint: mean survival time, dose: 50.0 mg/kg/injection, schedule: Q04DX002 (ip), vehicle: saline 97 % of control | endpoint: mean survival time, dose: 100.0 mg/kg/injection, schedule: Q04DX002 (ip), vehicle: saline 97 % of control

O=C(NC(CBr)CCCBr)c1ccc([N+](=O)[O-])cc1 (stereo unspecified)
inactive: endpoint: mean survival time, dose: 100.0 mg/kg/injection, schedule: Q04DX003 (ip), vehicle: saline with Tween-80 105 % of control | endpoint: mean survival time, dose: 200.0 mg/kg/injection, schedule: Q04DX003 (ip), vehicle: saline with Tween-80 94 % of control | endpoint: mean survival time, dose: 400.0 mg/kg/injection, schedule: Q04DX003 (ip), vehicle: saline with Tween-80 94 % of control

CC1(C)C2CCC1(C)C(CO)C2 (stereo unspecified)
inactive: [5] 100 % of control | [6] 102 % of control

CNC(=O)ON=C(C)C
inactive: endpoint: mean survival time, dose: 75.0 mg/kg/injection, schedule: Q01DX001 (ip), vehicle: saline 102 % of control | endpoint: mean survival time, dose: 75.0 mg/kg/injection, schedule: Q01DX009 (ip), vehicle: saline 99 % of control | endpoint: mean survival time, dose: 150.0 mg/kg/injection, schedule: Q01DX001 (ip), vehicle: saline 102 % of control | endpoint: mean survival time, dose: 150.0 mg/kg/injection, schedule: Q01DX009 (ip), vehicle: saline 94 % of control | endpoint: mean survival time, dose: 300.0 mg/kg/injection, schedule: Q01DX001 (ip), vehicle: saline 109 % of control | endpoint: mean survival time, dose: 300.0 mg/kg/injection, schedule: Q01DX009 (ip), vehicle: saline 108 % of control

Cc1[nH]c2ccc(N=CN(C)C)cc2c1C
inactive: [4] 94 % of control
